From patent US20120149741A1, “TREATMENT OF DUCHENNE MUSCULAR DYSTROPHY” (Biomarin IGA Limited, priority 2007, published 2012)

Test system: Utrophin A promoter linked to a luciferase reporter gene in mdx mouse H2K cells
Experiment: Luciferase reporter assay (murine H2K cells)
Type: cell-based
Conditions: luciferase level, H2K/mdx/Utro A reporter cells, final concentration of 10 μM, 48 hrs
Method: The cell line used for the screen is an immortalized mdx mouse H2K cell line that has been stably transfected with a plasmid containing fragment of the Utrophin A promoter including the first untranslated exon linked to a luciferase reporter gene (see FIG. 1).
Under conditions of low temperature and interferon containing media, the cells remain as myoblasts. These are plated into 96 well plates and cultured in the presence of compound for three days. The level of luciferase is then determined by cell lysis and reading of the light output from the expressed luciferase gene utilising a plate luminometer.
The H2K/mdx/Utro A reporter cell line was passaged twice a week until ≦30% confluent. The cells were grown at 33° C. in the presence of 10% CO2.
To remove the myoblasts for platting, they were incubated with Trypsin/EDTA until the monolayer started to detach.
• DMEM Gibco 41966 • 20% FCS • 1% Pen/Strep • 1% glutamine • 10 mls Chick embryo extract • Interferon (1276 905 Roche) Add fresh 10 μl/50 mls medium
The H2K/mdx/Utro A reporter cell line cells were plated out into 96 well plates (Falcon 353296, white opaque) at a density of approximately 5000 cells/well in 190 μl normal growth medium. The plates were then incubated at 33° C. in the presence of 10% CO2 for 24 hrs.
Compounds were dosed by adding 10 μl of diluted compound to each well giving a final concentration of 10 μM. The plates were then incubated for a further 48 hrs.
Cells were then lysed in situ following the manufacture's protocols (Promega Steady-Glo Luciferase Assay System (E2520), then counted for 10 seconds using a plate luminometer (Victor1420).
Compounds for screening were stored at −20° C. as 10 mM stocks in 100% DMSO until required.

With `CC(C)C(=O)Nc1ccc2cnn(-c3ccc4ccccc4c3)c2c1` [Example 1, N-(1-(naphthalen-2-yl)-1H-indazol-6-yl)isobutyramide] the Activity was “+ (Up to 200% relative to control)”.
With `CC(C)C(=O)Nc1ccc2cn(-c3ccc4ccccc4c3)nc2c1` [Example 2, N-(2-(naphthalen-2-yl)-2H-indazol-6-yl)isobutyramide] the Activity was “++++ (Above 401% relative to control)”.
For `CCS(=O)(=O)c1ccc2cn(-c3ccc(Cl)cc3)nc2c1` [Example 3, 2-(4-chlorophenyl)-6-(ethylsulfonyl)-2H-indazole], the Activity was “++ (Between 201% and 300% relative to control)”.
For `CCS(=O)(=O)c1ccc2nn(-c3ccc4ccccc4c3)nc2c1` [Example 4, 5-(ethylsulfonyl)-2-(naphthalen-2′-yl)-2H-benzo[d][1,2,3]triazole], the Activity was “++ (Between 201% and 300% relative to control)”.
